These results are taken from patent US6936585B2, “Corticotropin releasing factor 2 receptor agonists” (priority 2002, dated 2005).

For one test, the target named is T1, CRF1R (Homo sapiens, UniProt P34998).
T1 sequence (P34998 24-415): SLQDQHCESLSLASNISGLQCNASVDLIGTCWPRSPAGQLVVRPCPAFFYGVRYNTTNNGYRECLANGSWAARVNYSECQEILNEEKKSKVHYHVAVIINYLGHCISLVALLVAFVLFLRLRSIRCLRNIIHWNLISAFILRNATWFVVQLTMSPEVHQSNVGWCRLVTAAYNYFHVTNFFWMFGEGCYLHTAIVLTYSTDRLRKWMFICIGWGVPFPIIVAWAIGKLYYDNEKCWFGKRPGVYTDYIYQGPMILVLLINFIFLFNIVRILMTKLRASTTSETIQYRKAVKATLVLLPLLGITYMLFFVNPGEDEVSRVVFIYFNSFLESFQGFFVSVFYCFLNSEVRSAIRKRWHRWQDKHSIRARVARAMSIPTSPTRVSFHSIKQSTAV
Briefly: CRF1R agonist activation (EC50 / Emax), called comparative CRF binding. The test is classed as cell-based. The conditions noted are these: read-out: CRF1R Emax. The gist of the method: (§1)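 Read-out is Gαs-driven cAMP induction, quantified directly in lysates or through CRE-reporter gene expression, after treating CRF1R- or CRF2R-expressing cells with peptide. Vehicle-treated cells serve as the comparison.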

A further test concerns the target T2, CRF2R (Homo sapiens, UniProt Q13324).
T2 sequence (Q13324 1-411): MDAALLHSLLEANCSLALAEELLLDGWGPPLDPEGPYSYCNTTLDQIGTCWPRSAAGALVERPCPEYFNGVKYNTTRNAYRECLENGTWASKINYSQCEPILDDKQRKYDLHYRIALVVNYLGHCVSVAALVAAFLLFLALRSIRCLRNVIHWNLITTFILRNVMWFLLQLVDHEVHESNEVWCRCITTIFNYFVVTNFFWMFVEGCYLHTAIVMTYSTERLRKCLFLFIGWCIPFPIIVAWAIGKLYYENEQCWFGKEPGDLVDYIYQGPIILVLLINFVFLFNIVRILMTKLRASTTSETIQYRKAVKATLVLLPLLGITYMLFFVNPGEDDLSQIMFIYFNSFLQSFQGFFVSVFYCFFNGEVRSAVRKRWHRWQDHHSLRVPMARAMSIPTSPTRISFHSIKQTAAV
Briefly: CRF2R agonist activation (EC50 / Emax), called comparative CRF binding. It is filed as cell-based. As to conditions: read-out: CRF2R Emax. In outline: as §1

Each structure is given as a SMILES string. Peptide text beside a SMILES is read from it.

In the case of `CC[C@H](C)[C@H](NC(=O)[C@H](CCCNC(=N)N)NC(=O)[C@H](C)NC(=O)[C@H](CC(N)=O)NC(=O)[C@H](CCC(N)=O)NC(=O)[C@H](CCC(=O)O)NC(=O)[C@H](C)NC(=O)[C@H](CCCNC(=N)N)NC(=O)[C@H](CCC(=O)O)NC(=O)[C@H](CCCNC(=N)N)NC(=O)[C@H](CCC(N)=O)NC(=O)[C@H](CO)NC(=O)[C@H](CCC(N)=O)NC(=O)[C@@H](NC(=O)[C@H](CCCCN)NC(=O)[C@H](CCC(=O)O)NC(=O)[C@H](CC(C)C)NC(=O)[C@H](CCC(=O)O)NC(=O)[C@H](CC(C)C)NC(=O)[C@H](CC(C)C)NC(=O)[C@@H](NC(=O)[C@H](CCCNC(=N)N)NC(=O)[C@H](CC(C)C)NC(=O)[C@H](CC(C)C)NC(=O)[C@H](CC(C)C)NC(=O)[C@H](CC(C)C)NC(=O)[C@@H]1CCCN1C(=O)[C@H](CC(C)C)NC(=O)[C@H](CC(=O)O)NC(=O)[C@@H](NC(=O)[C@H](CO)NC(=O)[C@H](CC(C)C)NC(=O)[C@H](CO)NC(=O)[C@@H]1CCCN1C(=O)[C@H](CC(N)=O)NC(=O)[C@@H](N)CC(=O)O)[C@@H](C)CC)[C@@H](C)O)[C@@H](C)O)C(=O)N[C@@H](Cc1ccccc1)C(=O)N[C@@H](CC(=O)O)C(=O)N[C@@H](CCCNC(=N)N)C(=O)N[C@H](C(N)=O)C(C)C` [compound 338] (H-DNPSLSIDLPLLLLRTLLELEKTQSQRERAEQNARIFDRV-NH2; N-terminus assumed), the results for the Emax at CRF1R and on CRF2R were 41.1% and 77.5%, respectively.
For the compound `CC[C@H](C)[C@H](NC(=O)[C@H](C)NC(=O)[C@H](CC(N)=O)NC(=O)[C@H](CCC(N)=O)NC(=O)[C@H](CCC(=O)O)NC(=O)[C@H](C)NC(=O)[C@H](CCCNC(=N)N)NC(=O)[C@H](CCC(=O)O)NC(=O)[C@H](CCCNC(=N)N)NC(=O)[C@H](CCC(N)=O)NC(=O)[C@H](CO)NC(=O)[C@H](CCC(N)=O)NC(=O)[C@@H](NC(=O)[C@H](CCCNC(=N)N)NC(=O)[C@H](C)NC(=O)[C@H](CC(C)C)NC(=O)[C@H](CCC(=O)O)NC(=O)[C@H](CC(C)C)NC(=O)[C@H](CC(C)C)NC(=O)[C@@H](NC(=O)[C@H](CCCNC(=N)N)NC(=O)[C@H](CC(C)C)NC(=O)[C@H](CC(C)C)NC(=O)[C@H](Cc1ccc(O)cc1)NC(=O)[C@H](CCC(N)=O)NC(=O)[C@@H]1CCCN1C(=O)[C@H](CC(C)C)NC(=O)[C@H](CC(=O)O)NC(=O)[C@@H](NC(=O)[C@H](CO)NC(=O)[C@H](CC(C)C)NC(=O)[C@H](CO)NC(=O)[C@@H]1CCCN1C(=O)[C@H](CC(N)=O)NC(=O)[C@@H](N)CC(=O)O)[C@@H](C)CC)[C@@H](C)O)[C@@H](C)O)C(=O)N[C@H](C(=O)N[C@@H](Cc1ccccc1)C(=O)N[C@@H](C)C(=O)N[C@@H](CO)C(=O)N[C@H](C(N)=O)C(C)C)[C@@H](C)CC` [compound 339] (H-DNPSLSIDLPQYLLRTLLELARTQSQRERAEQNAIIFASV-NH2), the Emax on CRF1R amounted to 13.2%; at CRF2R, 47.9%.

For orientation: Emax means the maximal effect, on the per cent scale that the assay sets.
